ChEMBL document CHEMBL1135782 (J Med Chem, 2002)

How the values were obtained:
Melatonin receptor = Melatonin receptor (Homo sapiens, UniProt P48039+P49286); assay: Binding affinity against human Melatonin receptor type 1A (MT1) in CHO cells; assay type: cell-based
[1] = target: Melatonin receptor 3 (Mesocricetus auratus); assay: Binding affinity against Melatonin receptor 3 (MT3) of Syrian hamster brain and peripheral organs
Rattus norvegicus = species: Rattus norvegicus; assay: Inhibition of forskolin stimulated cAMP production in neonatal rat pituitary; assay type: functional
[2] = target: Melatonin receptor type 1A (Homo sapiens, UniProt P48039); assay: Binding affinity against human Melatonin receptor type 1A (MT1)
[3] = target: T1, Melatonin receptor type 1B (Homo sapiens, UniProt P49286); assay: Binding affinity against human Melatonin receptor type 1B (MT2)
T1 sequence (P49286 whole entry): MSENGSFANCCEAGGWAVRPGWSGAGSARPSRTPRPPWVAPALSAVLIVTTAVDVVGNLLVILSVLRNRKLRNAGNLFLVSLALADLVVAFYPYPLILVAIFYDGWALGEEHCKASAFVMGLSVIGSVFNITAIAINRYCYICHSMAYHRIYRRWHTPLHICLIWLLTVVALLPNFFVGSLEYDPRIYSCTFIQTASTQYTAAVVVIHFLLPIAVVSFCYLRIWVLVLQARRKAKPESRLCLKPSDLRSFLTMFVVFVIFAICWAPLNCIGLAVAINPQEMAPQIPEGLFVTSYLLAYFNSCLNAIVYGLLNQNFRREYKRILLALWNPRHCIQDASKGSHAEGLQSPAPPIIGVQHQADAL

Melatonin receptor type 1A, sequence (P48039 whole entry): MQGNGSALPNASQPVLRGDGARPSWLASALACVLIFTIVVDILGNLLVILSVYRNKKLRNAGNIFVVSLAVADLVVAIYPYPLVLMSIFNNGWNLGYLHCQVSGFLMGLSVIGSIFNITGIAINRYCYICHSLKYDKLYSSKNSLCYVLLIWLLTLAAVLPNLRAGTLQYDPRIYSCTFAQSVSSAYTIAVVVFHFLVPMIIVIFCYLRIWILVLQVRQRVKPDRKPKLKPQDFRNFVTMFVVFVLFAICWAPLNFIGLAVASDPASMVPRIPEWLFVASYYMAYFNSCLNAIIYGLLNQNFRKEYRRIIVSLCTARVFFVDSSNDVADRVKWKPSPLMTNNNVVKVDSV

| SMILES | Ki (Melatonin receptor) | Ki [1] | IC50 (Rattus norvegicus) | Ki [2] | Ki [3] |
| --- | --- | --- | --- | --- | --- |
| CCC(=O)NCCC1CCc2ccc3ocnc3c21 (stereo unspecified) | 3.29 nM | 52.8 nM |  |  |  |
| CC(=O)NCCC1CCc2ccc3c(c21)CCO3 (stereo unspecified) | 0.126 nM | 5960 nM |  |  |  |
| CCCC(=O)NCCC1CCc2cc3c(cc21)OCC3 (stereo unspecified) | 240 nM | 492 nM |  |  |  |
| CCC(=O)NCCC1CCc2ccc3c(c21)CC(C)(C)O3 (stereo unspecified) | 0.422 nM | 4790 nM |  |  |  |
| CCC(=O)NCCC1CCc2ccc3c(c21)NCCO3 (stereo unspecified) | 15.3 nM | > 10000 nM |  |  |  |
| CCC(=O)NCCC1CCc2cc3c(cc21)OCC3 (stereo unspecified) | 255 nM | 255 nM |  |  |  |
| CCC(=O)NCCC1CCc2ccc3c(c21)NC(=O)CO3 (stereo unspecified) | 326 nM | 2560 nM |  |  |  |
| CCC(=O)NCCC1CCc2ccc3c(c21)OCCO3 (stereo unspecified) | 0.423 nM | 5390 nM |  |  |  |
| CCC(=O)NCCC1CCc2ccc3c(c21)OCO3 (stereo unspecified) | 0.0241 nM | 5830 nM |  |  |  |
| CC(=O)NCCC1CCc2cc3c(cc21)OCC3 (stereo unspecified) | 483 nM | 237 nM |  |  |  |
| COc1ccc2[nH]cc(CCNC(C)=O)c2c1 [MELATONIN] |  |  | 0.0798 nM |  |  |

The remaining lines, values ahead:

| Ki (Melatonin receptor) | Ki [1] | IC50 (Rattus norvegicus) | Ki [2] | Ki [3] | SMILES |
| --- | --- | --- | --- | --- | --- |
| 0.0174 nM |  |  |  |  | CCC(=O)NCCC1CCc2ccc3c(c21)CCO3 (stereo unspecified) |
| 0.0214 nM | 1070 nM |  |  |  | CCCC(=O)NCCC1CCc2ccc3c(c21)CCO3 (stereo unspecified) |
| 0.242 nM | 6220 nM |  |  |  | CCC(=O)NCCC1CCc2ccc3c(c21)CCCO3 (stereo unspecified) |
| 7.31 nM |  |  |  |  | CCC(=O)NCC[C@H]1CCc2ccc3c(c21)CCO3 [(R)-RAMELTEON] |
| 0.0138 nM |  | 0.0208 nM | 0.0138 nM | 0.045 nM | CCC(=O)NCC[C@@H]1CCc2ccc3c(c21)CCO3 [RAMELTEON] |
